# Assay results published in PMC12040169 (PLOS Biology, 2025).
# Assay: in vitro
# Conditions: human, hela cells, % viability
row,Structure (SMILES),"viability at 28.5 h, 10 µM [%]"
1,COc1ccccc1CC(=N)NOC(=O)COc1cccc2ccccc12 [CBK263012],94.2
2,COc1ccc(Cl)cc1N/C=C(/C#N)c1nc(-c2cc3cc([N+](=O)[O-])ccc3oc2=O)cs1 [CBK263014],102
3,O=C1C2C3C=CC(C2C(=O)N1CCO)C1C2C(=O)N(CCO)C(=O)C2C31 (stereo not shown) [CBK263016],101
4,CCC(Sc1nc(C)cc(C)n1)C(=O)N1c2ccccc2Sc2ccccc21 (stereo not shown) [CBK263018],92.9
5,O=C(c1cccnc1)N1CCN(Cc2cccc([N+](=O)[O-])c2)CC1 [CBK263020],114
6,CC(=O)C12c3ccccc3C(c3ccccc31)C1C(=O)N(c3ccc(Cl)c(C(=O)O)c3)C(=O)C12 (stereo not shown) [CBK263021],93.8
7,CCC12CN3CCN(CC(C3)/C1=N\O)C2 [CBK263022],85.9
8,O=C(O)c1cc2nc3c(c(C(F)(F)F)n2n1)CCc1ccccc1-3 [CBK263025],102
9,O=C(c1cccnc1)N1CCN(Cc2ccc([N+](=O)[O-])cc2)CC1 [CBK263026],93.4
10,CCC(SC1=NCCS1)C(=O)Nc1ccc(S(N)(=O)=O)cc1 (stereo not shown) [CBK263027],95.3
11,CN(C)CC1(O)C2CN3CCN(C2)CC1(c1ccccc1)C3 (stereo not shown) [CBK263029],97.5
12,O=C(O)c1ccc(N2C(=O)C3C4C=CC(C4=C(c4ccccc4)c4ccccc4)C3C2=O)cc1 (stereo not shown) [CBK263030],104
13,COc1ccc(C(=O)N2CCN(Cc3cc(OC)ccc3OC)CC2)cc1 [CBK263032],88.8
14,CC12CN3CCN(CC(C3)C1(O)CN1CCOCC1)C2 (stereo not shown) [CBK263033],103
15,CCOC(=O)c1c(NC(=O)Cn2cnc([N+](=O)[O-])n2)sc2c1CCC2 [CBK263042],92.5
16,Cc1ccc(-c2nc3ncccc3o2)cc1NC(=O)c1ccc(F)cc1 [CBK263043],103
17,O=C(NCCCN1CCOCC1)c1cnn2c(-c3ccccc3)cc(-c3ccccc3)nc12 [CBK263046],79.9
18,CN(C)CCNCCP(=O)(c1ccccc1)c1ccccc1 [CBK263049],104
19,Cc1c(NC(=O)c2ccc([N+](=O)[O-])o2)cccc1-c1nc2ccccc2s1 [CBK263051],85.6
20,Cc1ccc(C(=O)Nc2c(C(=O)N3CCN(Cc4ccccc4)CC3)cnn2-c2ccccc2)cc1 [CBK263053],91.1
21,CCOC(=O)c1c(NC(=O)Cn2nc([N+](=O)[O-])c(Cl)c2C)sc2c1CCC(C)C2 (stereo not shown) [CBK263054],94.2

row,Structure (SMILES),"viability at 28.5 h, 10 µM [%]"
1,Cc1ccc2oc(-c3ccc(C)c(NC(=O)c4cc([N+](=O)[O-])ccc4Cl)c3)nc2c1 [CBK263055],94.5
2,Cc1ccc(C(=O)Nc2c(C(=O)Nc3cccnc3)cnn2-c2ccccc2)cc1 [CBK263056],92.4
3,O=C(Cn1nnc(-c2ccccc2)n1)Nc1cccc([N+](=O)[O-])c1 [CBK263057],97.9
4,CCOC(=O)c1c(NC(=O)Cn2cnc([N+](=O)[O-])n2)sc2c1CCC(C)C2 (stereo not shown) [CBK263058],120
5,CC(Sc1nc2ccccc2[nH]1)C(=O)O (stereo not shown) [CBK263063],101
6,S=C(NCCN1CCCCC1)NCc1ccccc1 [CBK263066],112
7,Nc1nc(N)nc(Cn2c(-c3nonc3N)nc3ccccc32)n1 [CBK263072],105
8,Cc1c(Nc2nc3nonc3nc2Nc2cccc(Cl)c2)c(=O)n(-c2ccccc2)n1C [CBK263073],103
9,C=CCNc1nc(NCCN2CCOCC2)nc(N2CCOCC2)n1 [CBK263074],112
10,O=S(=O)(Nc1ccc(N2CCCCC2)cc1)c1cccc2cccnc12 [CBK263077],93.1
11,O=C(O)C(Cc1ccccc1)N1C(=O)/C(=C/c2cccc([N+](=O)[O-])c2)SC1=S (stereo not shown) [CBK263078],98.4
12,O=C(O)c1cccnc1SC1CC(=O)N(c2ccc([N+](=O)[O-])cc2)C1=O (stereo not shown) [CBK263079],100
13,N#C/C(=C\c1ccc(-c2cc(Cl)ccc2Cl)o1)C(=O)Nc1cccc2cccnc12 [CBK263082],110
14,COc1ccc(C(O)c2coc3ccc(O)c(CN(C)C)c23)cc1 (stereo not shown) [CBK263083],96.4
15,Cc1ccc(C(=O)c2coc3ccc(OCC(=O)O)cc23)cc1 [CBK263084],86.6
16,O=C(O)c1ccc(N2C(=O)/C(=C/c3c[nH]c4ccccc34)SC2=S)cc1 [CBK263085],90.4
17,O=C(Cc1n[nH]c(=O)[nH]c1=O)N/N=C/c1cccc(Br)c1 [CBK263086],83
18,COCCCNC(NC(=O)c1ccc(C)cc1)C(Cl)(Cl)Cl (stereo not shown) [CBK263087],107
19,NS(=O)(=O)c1ccc(CCNC(=O)c2ccc(C#Cc3ccccc3)cc2)cc1 [CBK263089],95.9
20,CC(C)c1ccc(/C=N/Nc2nc(-c3ccccc3)cs2)cc1 [CBK263091],94.5
21,O=C(c1ccc(C#CC2(O)CCCCC2)cc1)N1CCN(Cc2ccccc2)CC1 [CBK263094],100

# Same assay, conditions: human, hela cells, % viability, bulk resorufin, single well
row,Structure (SMILES),"viability at 28.5 h, 10 µM [%]"
1,O=C(O)CCC(=O)OC1N=C(c2ccccc2Cl)c2cc(Br)ccc2NC1=O (stereo not shown) [CBK263076],85.2
